Columns and labels:
[1] = biological target: recombinant human kappa opioid receptor (KOR) (Homo sapiens (Human), UniProt P41145); assay type: binding
[2] = biological target: recombinant human mu opioid receptor (MOR) (Homo sapiens (Human), UniProt P35372); experiment: Opioid receptor radioligand binding assay, MOR ([3H]DAMGO); conditions: membranes of HEK293 cells expressing recombinant human MOR; 0.5 nM [3H]DAMGO

CC(C)C[C@@H](NC(=O)[C@@H](Cc1ccccc1)NC(=O)[C@H](N)[C@H](C)c1ccccc1)C(=O)N[C@H](CCCCN)C(=O)N1CCC(N)(C(=O)O)CC1 [Compound 18]
IC50 [1]: 0.000253 µM | δ/k [1]: >39603 | μ/k [1]: 38855 | IC50 [2]: 9.81 µM
